According to patent EP4702986A1, “POLYPEPTIDE AND USE THEREOF” (Biocells (Beijing) Biotech Co., Ltd., priority 2023, dated 2024):
“Also recorded” adds a separate entry of the source. Numbered stars: 1 amine (or outer) side, 2 acyl side, 3 side chain; on linkers, the order of the positions; unused ones are H or OH. Side chains are listed from the residue outwards. Peptide text beside a SMILES is read from it. * marks the point of attachment. C18 diacid = O=C(O)CCCCCCCCCCCCCCCCC(=O)*; γGlu = O=C(O)[C@H](CCC(=O)[*:2])N[*:1]; Fumaroyl = O=C(O)/C=C/C(=O)*; Lauroyl = CCCCCCCCCCCC(=O)*; AEEA = NCCOCCOCC(=O)O

Columns and labels:
[1] = target: T1, human ETA receptor (Homo sapiens, UniProt P25101); experiment: Selectivity of polypeptides on human ETA receptor (IP-One Gq kit, % of positive control ET1); format: cell-based; conditions: read-out: hETAR agonist activity, percentage of activity relative to ET1
T1 construct: expressed in transfected cells; host or cells: 293T-17 cells, transient transfection
T1 sequence (P25101 21-427): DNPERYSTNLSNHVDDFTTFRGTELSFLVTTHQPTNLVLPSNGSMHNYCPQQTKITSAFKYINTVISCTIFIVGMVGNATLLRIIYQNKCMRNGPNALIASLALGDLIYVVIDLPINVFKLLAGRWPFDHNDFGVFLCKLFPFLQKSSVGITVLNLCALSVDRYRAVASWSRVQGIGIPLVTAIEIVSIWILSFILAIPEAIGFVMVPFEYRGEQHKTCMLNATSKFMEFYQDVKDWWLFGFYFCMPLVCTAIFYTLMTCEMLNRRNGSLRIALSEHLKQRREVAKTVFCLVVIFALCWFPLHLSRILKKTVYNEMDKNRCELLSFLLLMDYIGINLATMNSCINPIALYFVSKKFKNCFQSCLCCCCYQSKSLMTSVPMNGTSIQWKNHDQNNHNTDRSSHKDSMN
Procedure, shortened: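 293T-17 cells transiently transfected with human ETA receptor (48 h), 30,000 cells/well exposed to polypeptides for 1 h at 37°C; IP1 accumulation by HTRF (665/620 nm ratio). Activity given as % of ET1 at the same concentration after PBS-control subtraction.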

[2] = in vivo; conditions: male, SD, rat, in vivo, iv
Experimental: (§1) In an experiment about acute toxicity of intravenous administration, male SD rats weighing 200-230 g were dosed in a range between 480 µg/Kg and 30 µg/Kg via tail vein injection in a descending order of dosage. […] Toxic response and mortality of the rats were preliminarily observed, and time of death and doses without mortality of the rats were recorded. The level of acute toxicity of the polypeptides was preliminarily determined based on the doses without mortality.

[3] = test system: male SD rats; experiment: in vivo; conditions: for Observations of Animal Status: one animal per row, observed 24 hours
Experimental: as §1

[4] = Determination of half-lives of polypeptides (plasma, LC-MS); conditions: for half-life: C57 BL/6, mouse, plasma, iv
[5] = intravenous (tail vein) 120 µg/Kg
[6] = intravenous (tail vein) 240 µg/Kg
[7] = intravenous (tail vein) 480 µg/Kg
[8] = intravenous (tail vein) 360 µg/Kg

Row | Structure (SMILES) | activation at 10 µM [1] [%] | activation at 100 µM [1] [%] | MTD at 24 h [2] [mg/kg] | Observations of Animal Status ([3]; intravenous (tail vein) 30 µg/Kg) | Observations of Animal Status ([3]; intravenous (tail vein) 60 µg/Kg) | Observations of Animal Status [3, 5] | Observations of Animal Status [3, 6] | half-life [4] [min] | Observations of Animal Status [3, 7] | acute toxicity of intravenous administration (comparison among polypeptides) ([3]; male SD rats, tail vein injection) | AUClast 0-30 min ([4]; C57 BL/6 mice, i.v., dosage per compound 0.48, 0.96 or 1 mpk) [ng·h/mL] | Observations of Animal Status [3, 8]
1 | CCCCCCCCCCCC(=O)N[C@@H](CCC(=O)O)C(=O)NCCOCCOCC(=O)NCCCC[C@H](NC(=O)[C@H](Cc1c[nH]cn1)NC(=O)[C@H](C)NC(=O)[C@H](Cc1ccccc1)NC(=O)[C@H](Cc1ccc(O)cc1)NC(=O)[C@@H](NC(=O)[C@H](C)NC(=O)[C@H](CCC(=O)O)NC(=O)[C@H](CCC(=O)O)NC(=O)[C@H](CC(=O)O)NC(=O)/C=C/C(=O)O)C(C)C)C(=O)N[C@@H](CC(=O)O)C(=O)N[C@H](C(=O)N[C@H](C(=O)N[C@@H](Cc1c[nH]c2ccccc12)C(=O)O)[C@@H](C)CC)C(C)C [BX-238] (Fumaroyl-DEEAVYFAHK([AEEA-Glu-Lauroyl])DVIW-OH) | -4.74 | -5.07 | 0.03 | Breathing speeded up at 53 minutes, showed no willingness to move at 1.2 hours; found dead the next morning (estimated to have died during the night); also recorded: Breathing speeded up at 50 minutes, showed no willingness to move at 1.2 hours; found dead the next morning (estimated to have died during the night) | Developed rapid breathing at 40-45 minutes; died at 1 hour | Developed rapid breathing at 5 minutes, the eyes turned pale and purple at 14 minutes; died at 16 minutes | Developed abdominal breathing at 5-6 minutes, developed rapid breathing and collapsed at 9 minutes; died at 11 minutes | 53 | – | – | – | –
2 | CC[C@H](C)[C@H](NC(=O)[C@H](CC(=O)O)NC(=O)[C@H](CC(C)C)NC(=O)[C@H](Cc1c[nH]cn1)NC(=O)[C@H](C)NC(=O)[C@H](Cc1ccccc1)NC(=O)[C@H](Cc1ccc(O)cc1)NC(=O)[C@@H](NC(=O)[C@H](C)NC(=O)[C@H](CCC(=O)O)NC(=O)[C@H](CCC(=O)O)NC(=O)[C@H](CCCCNC(=O)COCCOCCNC(=O)COCCOCCNC(=O)CC[C@H](NC(=O)CCCCCCCCCCCCCCCCC(=O)O)C(=O)O)NC(=O)/C=C/C(=O)O)C(C)C)C(=O)N[C@H](C(=O)N[C@@H](Cc1c[nH]c2ccccc12)C(=O)O)[C@@H](C)CC [BX-253] (Fumaroyl-K([AEEA-AEEA-γGlu-C18 diacid])EEAVYFAHLDIIW-OH) | -12.9 | -9.03 | 0.48 | – | – | – | No abnormalities | 63 | No abnormalities | lowest acute toxicity | 3989 | –
3 | CC[C@H](C)[C@H](NC(=O)[C@H](CC(=O)O)NC(=O)[C@H](CC(C)C)NC(=O)[C@H](Cc1c[nH]cn1)NC(=O)[C@H](C)NC(=O)[C@H](Cc1ccccc1)NC(=O)[C@H](Cc1ccc(O)cc1)NC(=O)[C@@H](NC(=O)[C@H](C)NC(=O)[C@H](CCC(=O)O)NC(=O)[C@H](CCCCNC(=O)COCCOCCNC(=O)COCCOCCNC(=O)CC[C@H](NC(=O)CCCCCCCCCCCCCCCCC(=O)O)C(=O)O)NC(=O)[C@H](CC(=O)O)NC(=O)/C=C/C(=O)O)C(C)C)C(=O)N[C@H](C(=O)N[C@@H](Cc1c[nH]c2ccccc12)C(=O)O)[C@@H](C)CC [BX-254] (Fumaroyl-DK([AEEA-AEEA-γGlu-C18 diacid])EAVYFAHLDIIW-OH) | – | – | 0.12 | – | – | – | No obvious abnormalities; also recorded: Developed rapid breathing, the limbs turned purple, developed breathing depression, and limbs moved like swimming at 15 minutes after administration; then died at 20 minutes after administration; also recorded: Developed rapid breathing, the limbs turned purple, and had weak limbs at 14 minutes after administration; died of breathing depression at 21 minutes after administration | – | The body turned purple at 22 minutes after administration; died at 25 minutes after administration | – | – | The body turned purple at 16 minutes after administration; died at 26 minutes after administration
4 | CC[C@H](C)[C@H](NC(=O)[C@H](CC(=O)O)NC(=O)[C@H](CC(C)C)NC(=O)[C@H](Cc1c[nH]cn1)NC(=O)[C@H](C)NC(=O)[C@H](Cc1ccccc1)NC(=O)[C@H](Cc1ccc(O)cc1)NC(=O)[C@@H](NC(=O)[C@H](C)NC(=O)[C@H](CCC(=O)O)NC(=O)[C@H](CCC(=O)O)NC(=O)[C@H](CC(=O)O)NC(=O)[C@H](CC(=O)O)NC(=O)COCCOCCNC(=O)COCCOCCNC(=O)CC[C@H](NC(=O)CCCCCCCCCCCCCCCCC(=O)O)C(=O)O)C(C)C)C(=O)N[C@H](C(=O)N[C@@H](Cc1c[nH]c2ccccc12)C(=O)O)[C@@H](C)CC [BX-255] ({C18 diacid-γGlu-AEEA-AEEA}-DDEEAVYFAHLDIIW-OH) | – | – | 0.12 | – | – | No obvious adverse reactions in the first 1 hour; breathing became slightly faster at nearly 2 hours; was in good condition and recovered when observed the next day; also recorded: Showed no willingness to move at 9 minutes; recovered at 1 hour and 10 minutes; also recorded: Lay still and showed no willingness to move at 12 minutes; became active at 17 minutes; signs of pain were observed in the animal through pupil observation; no pain at 28 minutes; also recorded: Developed difficulty in breathing at 17 minutes, recovered to normal in about 10 seconds; signs of pain were observed in the animal through pupil observation; no pain at 28 minutes | No obvious reaction in the first 27 minutes after administration; breathing speeded up at 27 minutes; died at 49 minutes after administration; also recorded: No obvious reaction in the first 24 minutes after administration; breathing speeded up at 27 minutes; died at 43 minutes after administration | – | The body turned purple at 23 minutes after administration; died at 29 minutes after administration | – | – | The body turned purple at 12 minutes after administration; died at 22 minutes after administration
